Results: US10549237B2, “Regenerable draw solute for osmotically driven processes” (NANYANG TECHNOLOGICAL UNIVERSITY, priority 2015, dated 2020)

Columns and labels:
[1] = Residual Na2HPO4 concentration after acetone extractive crystallization of the supernatant (Example 2); format: physicochemical; conditions: acetone added to 10 wt % supernatant; lowest value, depends on amount of solvent
Procedure: […]. There is an instantaneous phase separation resulting in precipitation of solid crystal hydrates upon acetone addition. The mixture was allowed to settle for 1 hour before the solid crystals are removed. […] The Na2HPO4 concentration in water/acetone mixtures were then calculated accordingly. All the measurements were repeated for three times.

[2] = Water flux during forward osmosis in a cross-flow setup (Example 3, FIG. 2); conditions: 40 wt % draw solution
Procedure: Water flux during FO was measured in a cross-flow setup by monitoring the feed solution weight decrease with time. The method is adapted from a reported standard procedure. The initial weight of feed solution and draw solution was 500 g and 200 g, respectively. The effective membrane area was 58.5 cm^2. The feed and draw solutions flew in co-current in order to reduce the tension stress on membrane. The flow rate was 400 ml/min and plastic spacers were used in both feed and draw sides to reduce concentration polarization. During the tests, the temperature in draw solution and feed solution were monitored to be 50±1° C. and 46±2° C. respectively. The concentrations of feed solution and draw solution were kept virtually constant during the measurement. Water flux measurements were conducted in both FO mode (selective membrane layer facing towards feed solution) and PRO mode (selective layer facing towards draw solution). The water flux was calculated by: Flux=Δm/(A*t) (1)
Where Δm is the value of feed solution weight decrease (kg), t is the corresponding measurement time (h) and A is the membrane area in square meters. Therefore, the flux is in unit of liter per square meter per hour (LMH) if the density of water is assumed to be 1 kg/L.

Disodium phosphate
residual Na2HPO4 concentration after extractive crystallization [1]: 0.28 wt % | water flux ([2]; feed 3.5 wt % NaCl (artificial seawater), FO mode, draw 50±1° C., feed 46±2° C.): 8 LMH | water flux ([2]; feed 3.5 wt % NaCl (artificial seawater), PRO mode, draw 50±1° C., feed 46±2° C.): 19 LMH | water flux ([2]; feed 17 wt % NaCl): about 1.0 LMH
